Data on four molecules can be found in paper PMC6002953 (ACS chemical neuroscience, 2017).

One data set has as its system MDCK-MDR1 monolayers. Briefly: BBB permeability, bidirectional transport through MDCK-MDR1 monolayers. The note with it: 10 μM test article, single determination.
For the next data set, the target named is T1, human OX2 receptor (Homo sapiens, UniProt O43614).
T1 sequence (O43614 1-444): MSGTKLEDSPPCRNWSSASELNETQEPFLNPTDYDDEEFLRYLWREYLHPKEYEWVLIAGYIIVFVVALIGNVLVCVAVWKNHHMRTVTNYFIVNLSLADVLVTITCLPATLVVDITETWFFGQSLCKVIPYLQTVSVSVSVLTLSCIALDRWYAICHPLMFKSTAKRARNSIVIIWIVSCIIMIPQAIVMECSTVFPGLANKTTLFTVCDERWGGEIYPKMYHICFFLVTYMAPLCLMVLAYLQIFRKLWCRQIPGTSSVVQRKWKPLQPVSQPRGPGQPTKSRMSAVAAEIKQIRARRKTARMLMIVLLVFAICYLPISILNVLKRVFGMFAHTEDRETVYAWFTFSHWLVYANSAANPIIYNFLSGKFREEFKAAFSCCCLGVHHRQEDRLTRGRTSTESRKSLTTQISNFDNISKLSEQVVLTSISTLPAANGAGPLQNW
As to the kind of experiment: Calcium mobilization Ke assay, OX2. The data set is classed as cell-based. (In general: Calcium assays in cells follow changes in intracellular calcium, usually with a dye or a luminescent sensor.)

The target of a further data set is T2, human OX1 receptor (Homo sapiens, UniProt O43613).
T2 sequence (O43613 1-425): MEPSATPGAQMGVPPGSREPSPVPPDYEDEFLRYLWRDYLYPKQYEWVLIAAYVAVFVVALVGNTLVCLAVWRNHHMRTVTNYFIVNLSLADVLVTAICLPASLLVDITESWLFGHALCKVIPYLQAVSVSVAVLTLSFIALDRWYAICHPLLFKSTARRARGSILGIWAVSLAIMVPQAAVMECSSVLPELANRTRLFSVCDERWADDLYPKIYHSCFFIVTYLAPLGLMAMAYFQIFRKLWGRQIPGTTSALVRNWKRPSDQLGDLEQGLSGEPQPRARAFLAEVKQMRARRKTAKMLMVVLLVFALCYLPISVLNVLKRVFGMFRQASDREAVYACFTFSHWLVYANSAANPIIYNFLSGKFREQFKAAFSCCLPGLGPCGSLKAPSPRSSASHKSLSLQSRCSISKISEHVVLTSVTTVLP
As to the kind of experiment: Calcium mobilization Ke assay, OX1. It is filed as cell-based. The note with it: for OX2/OX1: ratio of Ke values OX2/OX1.

A short description of data set [1]: Kinetic solubility in PBS pH 7.4. The data set is classed as physicochemical. The note with it: pH 7.4, aqueous buffer, kinetic from dmso stock.
The test system of another data set is P-glycoprotein (MDR1). As to the kind of experiment: BBB permeability, bidirectional transport through MDCK-MDR1 monolayers. The note with it: dog, MDCK-MDR1, pH 7.4.
The next data set relates to OX1. The note with it: cited from earlier work.

“And” between values parts separate entries of the source, which are not always exact repeats. Equal values may be shown once. Read-outs that look alike come from different tables or passages of the source. A value given as a limit tells only on which side of the number the result lay.

As to `COc1ccc(CC2c3cc(OCC(F)(F)F)c(OC)cc3CCN2CC(=O)NCc2cccnc2)cc1OC` (stereo not shown) [Compound 5, reference compound], the “Papp A-to-B” value in the data set with MDCK-MDR1 monolayers (MDCK-MDR1, apical-to-basolateral) is recorded as 12.2 10^−6 cm/sec. In addition, the “Papp B-to-A” value with MDCK-MDR1 monolayers (MDCK-MDR1, basolateral-to-apical) was 36.2 10^−6 cm/sec.
For the molecule `COc1cc2c(cc1N(C)C)C(Cc1cccc(N(C)C)c1)N(CC(=O)NCc1ccccc1)CC2` (stereo not shown) [Compound 42, N-Benzyl-2-[7-(dimethylamino)-1-{[3-(dimethylamino)phenyl]methyl}-6-methoxy-1,2,3,4-tetrahydroisoquinolin-2-yl]acetamide], the Kd at human OX2 receptor is 1360 nM. At human OX1 receptor, the Kd came to 148 ± 36 nM and the OX2/OX1 is 9.1.
Turning to `COc1ccc(CC2c3cc(N(C)C)c(OC)cc3CCN2CC(=O)NCc2cccnc2)cc1N(C)C` (stereo not shown) [Compound 44, 2-[7-(Dimethylamino)-1-{[3-(dimethylamino)-4-methoxyphenyl]methyl}-6-methoxy-1,2,3,4-tetrahydroisoquinolin-2-yl]-N-(pyridin-3-ylmethyl)acetamide], the solubility (kinetic) at 2 h in data set [1] was above 200 µM. Moreover, in the data set with P-glycoprotein (MDR1), the Papp A→B at 90 min, 10 μM is 14.7 ×10⁻⁶ cm/s; the Papp B→A at 90 min, 10 μM was 47.8 ×10⁻⁶ cm/s; the efflux ratio at 90 min, 10 μM came out at 3.3. In addition, on human OX2 receptor, the Kd is above 10000 nM. In addition, at human OX1 receptor, the Kd worked out at 5.7 ± 1 nM and the OX2/OX1 is reported as >1,760. At human OX1 receptor (OX1 over OX2, calcium mobilization assays), the “selectivity over OX2” value is > 1,760 fold and > 1,000 fold.
Regarding `Cc1nc2ccc(NC(=O)Nc3ccnc4cccnc34)cc2o1` [SB334867], the “selectivity over OX2” value in the data set with OX1 was 50 ×; in the data set with OX1 (listed as 3) it was ~ 50 ×. Further, in the data set on OX1 (read-out: IC50 (OX1), commonly used OX1 antagonist), the IC50 is 40 nM.

The term Kd denotes the equilibrium constant for the complex coming apart. By kinetic solubility is commonly meant the concentration staying in solution when a stock, usually in DMSO, is diluted into the medium. As usually defined, the Papp A→B is how fast a substance crosses the layer from the apical side. High values mean ready permeation, low ones poor permeation. One may read the Papp B→A as how fast a substance crosses the layer from the basolateral side. Usually efflux ratio stands for a quotient of directional permeabilities that is used to spot active efflux. Usually IC50 stands for the concentration needed to halve the response being measured.
